Data from US7964591B2, “Pyridazine derivatives and their use as therapeutic agents” (Novartis Pharma AG, priority 2003, dated 2011).

Biological target: T1, stearoyl-CoA desaturase (SCD) (Mus musculus, UniProt P13516)
T1 sequence (P13516 1-355): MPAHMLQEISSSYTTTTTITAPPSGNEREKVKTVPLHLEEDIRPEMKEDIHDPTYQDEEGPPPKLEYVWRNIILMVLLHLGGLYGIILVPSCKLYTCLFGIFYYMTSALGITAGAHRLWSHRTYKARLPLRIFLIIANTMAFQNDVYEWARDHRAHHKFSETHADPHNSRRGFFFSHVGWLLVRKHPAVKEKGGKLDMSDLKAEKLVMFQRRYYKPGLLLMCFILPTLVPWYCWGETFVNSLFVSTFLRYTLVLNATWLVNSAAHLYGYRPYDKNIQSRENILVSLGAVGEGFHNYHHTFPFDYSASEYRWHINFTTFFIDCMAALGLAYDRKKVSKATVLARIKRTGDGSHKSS
Assay: Stearoyl-CoA desaturase inhibition using mouse liver microsomes (HTS microsomal assay, IC50 follow-up)
Conditions: % SCD enzyme activity remaining at 10 μM test compound
Method: Livers are immediately rinsed with cold 0.9% NaCl solution, weighed and minced with scissors. All procedures are performed at 4° C. unless specified otherwise. Livers are homogenized in a solution (1:3 w/v) containing 0.25 M sucrose, 62 mM potassium phosphate buffer (pH 7.0), 0.15 M KCl, 1.5 mM N-acetyleysteine, 5 mM MgCl2, and 0.1 mM EDTA using 4 strokes of a Potter-Elvehjem tissue homogenizer. The homogenate is centrifuged at 10,400×g for 20 min to eliminate mitochondria and cellular debris. The supernatant is filtered through a 3-layer cheesecloth and centrifuged at 105,000×g for 60 min. The microsomal pellet is gently resuspended in the same homogenization solution with a small glass/teflon homogenizer and stored at −70° C. The absence of mitochondrial contamination is enzymatically assessed. The protein concentration is measured using bovine serum albumin as the standard.
The tubes are vortexed vigorously and after 15 min incubation in a shaking water bath (37° C.), the reactions are stopped and fatty acids are analyzed.
Fatty acids are analyzed as follows: The reaction mixture is saponified with 10% KOH to obtain free fatty acids which are further methylated using BF3 in methanol. […] Fatty acid methyl esters are separated isocratically with acetonitrile/water (95:5 v:v) at a flow rate of 1 mL/min and are identified by comparison with authentic standards.
The compounds are analyzed with an HTS microsomal assay. The activities are defined in terms of % SCD enzyme activity remaining at the selected concentration (e.g., 10 μM) of the test compounds.

Mouse Microsome 10% remaining @ 10 μM [%] | Structure (SMILES)
61 | CC(C)CCNC(=O)c1ccc(N2CCN(C(=O)c3nnn(Cc4ccccc4)c3C(F)(F)F)CC2)nn1 [6-[4-(1-BENZYL-5-TRIFLUOROMETHYL-1H-[1,2,3]TRIAZOLE-4-CARBONYL)-PIPERAZIN-1-YL]PYRIDAZINE-3-CARBOXYLIC ACID (3-METHYLBUTYL)AMIDE]
46 | CC(=O)Oc1ccccc1C(=O)N1CCN(c2ccc(C(=O)NCCC3CC3)nn2)CC1 [ACETIC ACID 2-{4-[6-(2-CYCLOPROPYLETHYLCARAMOYL)PYRIDAZIN-3-YL]-PIPERAZINE-1-CARBONYL}PHENYL ESTER]
29 | CC(C)CCNC(=O)c1ccc(N2CCN(C(=O)N3CCN(C)CC3)CC2)nn1 [6-[4-(4-METHYLPIPERAZINE-1-CARBONYL)PIPERAZIN-1-YL]PYRIDAZIN E-3-CARBOXYLIC ACID (3-METHYLBUTYL)AMIDE]
94 | O=C(NCCC1CC1)c1ccc(N2CCN(C(=O)c3ccccn3)CC2)nn1 [6-[4-(PYRIDINE-2-CARBONYL)PIPERAZIN-1-YL]PYRIDAZINE-3-CARBOXYLIC ACID (2-CYCLOPROPYLETHYL)AMIDE]
45 | CC(NC(=O)Nc1ccc(N2CCN(C(=O)c3ccccc3C(F)(F)F)CC2)nn1)c1ccc(F)cc1 (centres unmarked) [1-[1-(4-Fluorophenyl)ethyl]-3-{6-[4-(2-trifluoromethylbenzoyl)piperazin-1-yl]pyridazin-3-yl}urea]
12 | O=C(NCCC1CC1)c1ccc(N2CCN(C(=O)c3cc(Cl)ccc3C(F)(F)F)CC2)nn1 [6-[4-(5-CHLORO-2-TRIFLUOROMETHYLBENZOYL)PIPERAZIN-1-YL]PYRIDAZINE-3-CARBOXYLIC ACID (2-CYCLOPROPYLETHYL)AMIDE]
7 | O=C(NCCC1CC1)c1ccc(N2CCN(Cc3cc(Cl)ccc3C(F)(F)F)CC2)nn1 [6-[4-(5-CHLORO-2-TRIFLUOROMETHYLBENZYL)PIPERAZIN-1-YL]PYRIDAZINE-3-CARBOXYLIC ACID (2-CYCLOPROPYLETHYL)AMIDE]
49 | O=C(NCC1CC1)c1ccc(N2CCN(C(=O)c3ccccc3C(F)(F)F)CC2)nn1 [6-[4-(2-TRIFLUOROMETHYLBENZOYL)PIPERAZIN-1-YL]PYRIDAZINE-3-CARBOXYLIC ACID CYCLOPROPYLMETHYLAMIDE]
23 | CC(C)CCNC(=O)c1ccc(N2CCN(C(=O)c3ccccc3N)CC2)nn1 [6-[4-(2-AMINOBENZOYL)PIPERAZIN-1-YL]PYRIDAZINE-3-CARBOXYLIC ACID (3-METHYLBUTYL)AMIDE]
73 | O=C(Nc1ccc(N2CCN(C(=O)c3ccccc3C(F)(F)F)CC2)nn1)Nc1ccccc1F [1-(2-FLUOROPHENYL)-3-{6-[4-(2-TRIFLUOROMETHYLBENZOYL)PIPERAZIN-1-YL]-PYRIDAZIN-3-YL}UREA]
9 | CC(=CC(=O)N1CCN(c2ccc(C(=O)NCCC(C)C)nn2)CC1)C(F)(F)F [6-[4-(4,4,4-TRIFLUORO-3-METHYLBUT-2-ENOYL)PIPERAZIN-1-YL]-PYRIDAZINE-3-CARBOXYLIC ACID (3-METHYLBUTYL)AMIDE]
8 | CC(C)CCNC(=O)c1ccc(N2CCN(C(=O)c3cnccc3C(F)(F)F)CC2)nn1 [6-[4-(4-TRIFLUOROMETHYLPYRIDINE-3-CARBONYL)PIPERAZIN-1-YL]PYRIDAZINE-3-CARBOXYLIC ACID (3-METHYLBUTYL)AMIDE]
7 | COc1ccc(CCNC(=O)c2ccc(N3CCN(C(=O)c4ccccc4C(F)(F)F)CC3)nn2)cc1 [6-[4-(2-TRIFLUOROMETHYLBENZOYL)PIPERAZIN-1-YL]PYRIDAZINE-3-CARBOXYLIC ACID [2-(4-METHOXYPHENYL)ETHYL]AMIDE]
12 | O=C(NCCC1CC1)c1ccc(N2CCN(Cc3ccccc3C(F)(F)F)CC2)nn1 [6-[4-(2-TRIFLUOROMETHYLBENZYL)PIPERAZIN-1-YL]PYRIDAZINE-3-CARBOXYLIC ACID (2-CYCLOPROPYLETHYL)AMIDE]
